Data published in patent US20090149482A1, “STEREOCHEMICALLY DEFINED DIPEPTIDE ESTERS OF ANTIVIRAL AGENTS FOR ENHANCED OCULAR TREATMENT” (priority 2001, published 2009).
Values joined by “and” are separate entries in the source; they are usually repeats but may differ in a detail not shown here. Equal values may be shown once. Read-outs that look alike come from different tables or passages of the source.

Assays:
[1] = tested on: rabbit corneal cell line (SIRC)
HSV-1 strain McKrae = experiment: HSV-1 epithelial keratitis rabbit model, topical treatment, SLE scores; assay type: in vivo; details: 14 days post-inoculation, 1% topical 5 times per day
Description: (§1) The rabbit eye is an excellent model to study acute HSV-1 epithelial keratitis. Also, spontaneous and induced ocular HSV-1 shedding and corneal epithelial disease in rabbits has been used as a model of human ocular HSV-1 reactivation and recurrence. HSV-1 strain McKrae was used in studies for epithelial keratitis. HSV-1 strain RE was used for studies of HSV stromal keratitis.
i) Epithelial Keratitis: A group of ten rabbits was used to study each compound. Both eyes of all rabbits were used. An aqueous vehicle (like a placebo) and one positive control were obtained using 1% TFT (Viroptic®). Each compound at 1% concentration (TFT=33 mM, Gly-Gly-ACV=26.6 mM, Val-Val-ACV=18.6 mM) were applied (50 μl) topically 5 times per day every two hours starting at 8:00 a.m. and ending at 4:00 p.m. The treatment began on the 3rd post-inoculation day and continued for 5 consecutive days. Slit-lamp examinations were performed once every day for 8 days and thereafter once every other day until lesions resolved.

HSV-1 strain RE = experiment: HSV-1 stromal keratitis rabbit model, topical treatment, SLE scores; assay type: in vivo; details: 13 days post-inoculation, 1% topical
Description: as §1
ii) Stromal Keratitis: The experiment is similar to the part (i) experiment as far as the treatment cycles for all experimental drugs (TFT and Val-Val-ACV) are concerned. The effect of Val-Val-ACV on stromal keratitis induced by intrastromal injection with a high (20 μl of a 1×10^7 pfu/ml stock) titer of HSV-1RE strain was compared to that of TFT. Each compound at 1% concentration (TFT=33 mM, Val-Val-ACV=18.6 mM) was applied topically. The same scoring as noted in Table 4 is used for stromal keratitis. Emphasis is placed on the stromal edema and visibility into the aqueous chamber and the visualization of the pupil and iris.
A group of ten rabbits were used to study each compound. Both eyes of all rabbits were treated. Three to four groups of 10 rabbits are used in one experiment. This includes vehicle control, TFT, and the newly synthesized antiviral Val-Val-ACV.

hPEPT1 = biological target: T1, hPEPT1 (Homo sapiens, UniProt P46059); experiment: [3H] Glycylsarcosine uptake and its inhibition in Caco-2 cells (affinity towards peptide transporter); assay type: cell-based; details: for Vmax of Gly-Sar uptake in presence of the drug: Gly-Sar with drug (10 mM); for Ki: read-out: Ki
T1 construct: endogenous in cells; host or cells: Caco-2 (human colon carcinoma, ATCC)
T1 sequence (P46059 1-708): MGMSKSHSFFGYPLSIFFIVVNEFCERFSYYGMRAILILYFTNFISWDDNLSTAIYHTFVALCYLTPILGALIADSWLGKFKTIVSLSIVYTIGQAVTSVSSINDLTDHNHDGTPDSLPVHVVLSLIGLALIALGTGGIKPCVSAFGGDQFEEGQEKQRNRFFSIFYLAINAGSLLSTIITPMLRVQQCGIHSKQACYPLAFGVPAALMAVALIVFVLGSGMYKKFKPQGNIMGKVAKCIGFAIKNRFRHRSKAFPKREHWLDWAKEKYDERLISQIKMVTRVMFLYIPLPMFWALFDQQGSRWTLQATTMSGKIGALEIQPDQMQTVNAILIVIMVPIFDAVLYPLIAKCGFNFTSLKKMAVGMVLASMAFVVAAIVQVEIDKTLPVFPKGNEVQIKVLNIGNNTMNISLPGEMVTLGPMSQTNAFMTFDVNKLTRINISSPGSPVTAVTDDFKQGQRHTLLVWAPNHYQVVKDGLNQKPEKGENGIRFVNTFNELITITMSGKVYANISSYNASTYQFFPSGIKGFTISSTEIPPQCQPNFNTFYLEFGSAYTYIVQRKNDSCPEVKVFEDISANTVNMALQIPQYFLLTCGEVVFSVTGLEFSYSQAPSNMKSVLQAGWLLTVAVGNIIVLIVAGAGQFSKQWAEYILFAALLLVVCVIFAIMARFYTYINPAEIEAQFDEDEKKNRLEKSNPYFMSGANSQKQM
Description: Materials: [^3H] Glycylsarcosine (Gly-Sar; 4 Ci/mmol) was purchased from Moravek Biochemicals (Brea, Calif.) and [^14C] Mannitol (50 mCi/mmol) was supplied by Amersham (Piscataway, N.J.). Human colon carcinoma derived Caco-2 cells were obtained from American Type Culture Collection (ATCC, Rockville, Md.). The growth medium, Dulbecco's modified Eagle Medium was obtained from Life Technologies (Grand Island, N.Y.). […] Fetal bovine serum (FBS) was purchased from JRH Biosciences (Lenexa, Kans.). Culture flasks (75 cm^2 growth area), polyester Transwells® (pore size 0.4 Cm with diameter 6.5 mm) and polyester membranes (pore size 0.4 Cm) were procured from Costar (Bedford, Mass.). The buffer components and solvents were obtained from Fisher Scientific (St. Louis, Mo.). All the di-peptide esters of acyclovir were custom synthesized in our laboratory. […] Cell Culture: All cultures were maintained in humidified incubator at 37° C. with a 5% carbon dioxide in air atmosphere. Caco-2 cells were obtained at passage 25 from American Type Culture Collection (ATCC) and grown in plastic tissue culture flasks. […] When 80% confluent, these cells were removed by treating them with Trypsin/EDTA and plated at a density of 100,000 cells/cm^2 on collagen coated plastic dishes containing clear polyester membranes (0.636 cm^2, […]) or 12-well tissue culture treated plastic plates. Cells were then grown in medium containing 10% FBS (heat-inactivated). […] [^14C] […] Metabolism studies in Cell Suspensions: Confluent Caco-2 cells, grown in tissue culture flasks were isolated with the aid of mechanical scraper and washed thrice with DPBS. […] One-hundred micro-liters of samples were withdrawn at predetermined time intervals and the sample was purified by precipitating the cellular proteins into the organic solvent mixture and stored at −80° C. until further analysis. The protein content of the cell suspension was determined by the method of Bradford using bovine serum albumin as the standard (BioRad protein estimation kit, Hercules, Calif.). […] Transport studies: Transport experiments were done using Side-Bi-Side™ diffusion cells (type VSC-1, Crown Glass Company Inc.) and Transwell® inserts. Prior to the experiment with Gly-Sar, Caco-2 cell monolayers grown on the clear polyester membranes and Transwell® inserts were washed with DPBS (pH 6.0) and incubated at 37° C. Freshly prepared drug solutions in DPBS (pH 6.0) was placed in the donor chamber and the receiver chamber was filled with DPBS. The volumes of donor and receptor chambers were 3 ml each for Side-Bi-Side™ diffusion cells and 0.5 ml and 1.5 ml respectively for Transwell® inserts. […] The samples were stored at −80° C. until analyzed HPLC. All experiments were performed at 37° C. […] The concentration dependent uptake of glycylsarcosine was studied using [^3H] […] For Dixon plots and Dose Response studies [^3H] […] Following incubation, the cell monolayers were washed three times with ice-cold HEPES buffer to terminate the uptake experiment. After the washings cells were lysed overnight using 1 ml 0.1% (w/v) Triton X-100 in 0.3 N NaOH at room temperature. Aliquots (500 μl) from each well were then transferred to scintillation vials containing 5 ml scintillation cocktail (Fisher Scientific, Fairlawn, N.J.). […] The amount of protein in the cell lysate was measured by the BioRad protein estimation kit using bovine serum albumin as standard (BioRad Protein estimation Kit, Hercules, Calif.). Analytical Procedures: All samples were assayed using HPLC. […] The column used was a C18 Luna column 4.6×250 mm (Phenomenex). The mobile phase consisted of a mixture of buffer and an organic modifier. The percentage of organic phase was varied in order to elute compounds of interest.

HCMV = experiment: In vitro antiviral screening, CPE inhibition in HFF cells; assay type: cell-based, human cytomegalovirus
[2] = rats, jugular vein
[3] = tested on: human fibroblast foreskin cells (HFF)
HSV-1 = experiment: In vitro antiviral screening, CPE inhibition in HFF cells; assay type: cell-based, herpes simplex virus 1; details: read-out: EC50 (concentration required to inhibit viral cytopathogenicity by 50%)
[4] = tested on: oligopeptide transporter on the rabbit cornea
[5] = rats, portal vein
EBV = experiment: In vitro antiviral screening, VCA Elisa; assay type: cell-based, epstein-barr virus
HSV-2 = experiment: In vitro antiviral screening, CPE inhibition in HFF cells; assay type: cell-based, herpes simplex virus 2
VZV = experiment: as above; assay type: cell-based, varicella zoster virus
in vitro = details: human, Caco-2, pH 7.4
[6] = oral, analyte amino acid intermediate
[7] = oral 20.0 mg/kg equivalent, total concentration in terms of ACV

**Q.** With `O=c1[nH]c(=O)n([C@H]2C[C@H](O)[C@@H](CO)O2)cc1C(F)(F)F` [TFT, trifluorothymidine, reference compound] as the compound, how does the percent survival ([1]; SIRC cells, 0.025 mM) read?
**A.** 86.98%

**Q.** And the percent survival ([1]; SIRC cells, 0.1 mM)?
**A.** 80.48%

**Q.** What about the percent survival ([1]; SIRC cells, 0.5 mM) of the same compound?
**A.** 64.76%

**Q.** And the percent survival ([1]; SIRC cells, 1 mM)?
**A.** 54.35%

**Q.** And the “% viable cells” value ([1]; SIRC cells, 5 mM)?
**A.** 0.01% and 0.01±0.1%

**Q.** And the percent survival ([1]; SIRC cells, 5 mM)?
**A.** 0.01%

**Q.** And the “Concentration required to achieve an SLE Score of 0.3” value (HSV-1 strain McKrae)?
**A.** 33.3 mM

**Q.** And the “Concentration required to achieve an SLE Score of 0.2” value (HSV-1 strain RE)?
**A.** 33.3 mM

**Q.** What does the source list for `CC(C)C(NC(=O)CN)C(=O)OCCOCn1cnc2c(=O)[nH]c(N)nc21` (stereo not drawn) [Gly-Val-ACV, Glycine-Valine-Acyclovir]?
**A.** % viable cells [1]: 81.1±6.7%; Vmax of Gly-Sar uptake in presence of the drug (hPEPT1; Lineweaver-Burk): 0.095 ± 0.07 µmol/min/mg; Ki (hPEPT1; Lineweaver-Burk): 1820 ± 340 µM; Ki (hPEPT1; Michaelis-Menten): 1420 ± 240 µM; EC50 (HCMV): 59.5 µM; AUC(0-t)(CC) ([2]; oral 20.0 mg/kg equivalent): 633.8 ± 115.5 µg·min/mL; AUCinf(CC) ([2]; oral 20.0 mg/kg equivalent): 900.7 ± 74.8 µg·min/mL; Clast(CC) ([2]; oral): 1100 ± 210 ng/mL; Cmax(CC) ([2]; oral): 7200 ± 3300 ng/mL; Tmax(CC) ([2]; oral): 22.2 ± 8.3 min; AUC(0-t)(ACV) ([2]; oral, analyte acyclovir): 571.68 ± 99.22 µg·min/mL; Cl(ACV) ([2]; oral, analyte acyclovir): 13.3 ± 3.5 mL/min; Cmax(ACV) ([2]; oral, analyte acyclovir): 6900 ± 1500 ng/mL; MRT(ACV) ([2]; oral, analyte acyclovir): 79.61 ± 10.64 min; AUC(0-t)(AA) [2, 6]: 133.1 ± 48.2 µg·min/mL; Cl(AA) [2, 6]: 26.8 ± 4.5 mL/min; 10^2 × kobs (Caco-2 cell suspension; Caco-2, pH 7.4): 0.637 ± 0.01 min^−1mg^−1 protein; t1/2 (Caco-2 cell suspension; human, Caco-2, pH 7.4): 108.1 ± 2.4 min; CC50 [3]: > 160 µM; Vmax of concentration dependent transport (Caco-2 monolayers): 0.014±0.00058 moles cm^−2 min^−1; inhibition in transport in presence of Gly-Sar (Caco-2 monolayers): 63 % inhibition; Papp (Caco-2 monolayers; Caco-2, pH 6): 2.80±0.59 ×10^−6 cm/sec; Papp (Caco-2 monolayers; Caco-2, pH 7.4): 5.23±0.57 ×10^−6 cm/sec; Km (Caco-2 monolayers; read-out: Km of concentration dependent transport): 3.16 ± 0.31 mM; EC50 (HSV-1): 12.6 µM; Papp (% Control) of [3H] Val-ACV [4]: 23.7 (±6.6) % Control; AUC(0-t)(TC) [5, 7]: 416.1 ± 140.9 µg·min/mL; AUCinf(TC) [5, 7]: 598.7 ± 164.1 µg·min/mL; Clast(TC) ([5]; oral): 810 ± 120 ng/mL; Tmax(TC) ([5]; oral): 21.4 ± 5.77 min; AUC(0-t)(ACV) ([5]; oral, analyte acyclovir): 347.8 ± 108.2 µg·min/mL; Cl(Acv) ([5]; oral, analyte acyclovir): 12.5 ± 5.5 mL/min; Cmax(ACV) ([5]; oral, analyte acyclovir): 4060 ± 1440 ng/mL; MRT(ACV) ([5]; oral, analyte acyclovir): 64.1 ± 5.35 min; AUC(0-t)(AA) [5, 6]: 143.6 ± 51.4 µg·min/mL; Cl(AA) [5, 6]: 31.9 ± 5.3 ml min^−1I; Cmax(AA) [5, 6]: 990 ± 540 ng/mL; Cmax(TC) ([5]; oral, total concentration in terms of ACV): 4070 ± 1030 ng/mL; EC50 (EBV): 5.61 µM; EC50 (HSV-2): 22.7 µM; EC50 (VZV): 0.38 µM

**Q.** With `NCC(=O)NC(Cc1ccc(O)cc1)C(=O)OCCOCn1cnc2c(=O)[nH]c(N)nc21` (stereo not drawn) [Gly-Tyr-ACV] as the compound, how does the half-life at 0.2 mM (in vitro) read?
**A.** 21.5 ± 3.2 min

**Q.** What about the “Vmax of Gly-Sar uptake in presence of the drug” value (hPEPT1; Lineweaver-Burk) of the same compound?
**A.** 0.094 ± 0.11 µmol/min/mg

**Q.** And the Ki (hPEPT1; Lineweaver-Burk)?
**A.** 3940 ± 610 µM

**Q.** And the Ki (hPEPT1; Michaelis-Menten)?
**A.** 3560 ± 1980 µM

**Q.** What about the “10^2 × kobs” value (Caco-2 cell suspension; Caco-2 cell suspension at pH 7.4, * = no intact drug detected during the experiment) of the same compound?
**A.** 3.21 ± 0.46 min^−1mg^−1 protein
